Where two headings read alike, the source gives them in different places.
Molecular target: T1, mushroom tyrosinase
T1 construct: mushroom tyrosinase (Sigma T-7755)
Test: Mushroom Tyrosinase Assay
Format: biochemical
Conditions: L-DOPA substrate, pH 7.0, absorbency 475 nm, vs ethanol control
Method: Mushroom tyrosinase inhibition is indicative of reduction in melanin synthesis, thereby showing skin lightening effect.
Into each well of a 96-well plate, 150 microliters of phosphate buffer (100 mM, pH 7.0), 10 microliters of L-DOPA (L-3, 4-Dihydroxyphenylalanine, 10 mM), and 20 microliters of skin lightening agent (dissolved in ethanol, which is the control) were added. Following an initial measurement of background absorbency at 475-nm, 20 microliters of mushroom tyrosinase (Sigma T-7755; 6050 units/ml) was added and incubated at room temperature.
Absorbency is read at 475-nm over the following time points: 0, 2, 4, and 6.5 minutes. The data is plotted as 475-nm absorbency vs. time (minutes) and the slope of the line is calculated (ΔAbs 475 nm/min).

[1] = Experiment 1, read-out: IC50 (Concentration) Experiment 1
[2] = Experiment 2, read-out: IC50 (Concentration) Experiment 2

Row | Structure (SMILES) | IC50 [1] [nM] | IC50 [2] [nM]
1 | Oc1ccc(C2SCCCS2)c(O)c1 [6-member Di-Thianyl Resorcinol, 4-[2′-(1′,3′-dithiacyclohexy)]-1,3-dihydroxybenzene] | 1700 | 1000
2 | CCc1ccc(O)cc1O [4-Ethyl Resorcinol, reference compound] | 550 | 400
3 | Oc1ccc(C2SCCS2)c(O)c1 [5-member Di-Thianyl Resorcinol, 4-[2′-(1′,3′-dithiacyclopenty)]-1,3-dihydroxybenzene] | 3800 | 2500
